Data published in patent EP0398230B1, “Antiviral, highly water soluble, stable, crystalline salts of 2',3'-dideoxyinoside monohydrate, 2',3'-dideoxy-2',3'-didehydrothymidine monohydrate and 2',3'-dideoxy-2'-fluoroinosine hemihydrate” (priority 1989, dated 1990).
Like-named read-outs stand apart in the source and are kept apart here.

Tests used:
[1] = 5 weeks at 70°C
[2] = physchem; settings: water, pH 10, water, thermodynamic from solid

Aqueous Solution Stability, loss (1 week at 50°C) [%]	Aqueous Solution Stability, loss (1 week at 70°C) [%]	Solid State Stability [1]	SMILES	solubility [2] [mg/mL]
5	10	No loss	OC[C@@H]1CC[C@H](n2cnc3c(O)ncnc32)O1.[Na] [Na-DDI·H2O, sodium-2',3'-dideoxyinosine]	
			O=c1[nH]cnc2c1ncn2[C@@H]1O[C@H](CO)C[C@@H]1F [Sodium F-ddI Hemihydrate, sodium-2',3'-dideoxy-2'-fluoroinosine]	~400
